Experiment: Compound was tested for the binding affinity and selectivity by competitive inhibition of radioligands on opioid delta receptor in guinea pig brain membranes

For `CN(C(=O)Cc1ccc(Cl)c(Cl)c1)[C@H](CN1CCCC1)c1cccc(NC(=O)[C@@H](N)CC(=O)O)c1` [(S)-3-Amino-N-[3-((S)-1-{[2-(3,4-dichloro-phenyl)-acetyl]-methyl-amino}-2-pyrrolidin-1-yl-ethyl)-phenyl]-succinamic acid], the Ki was 1070 nM.
For `CN(C(=O)Cc1ccc(Cl)c(Cl)c1)[C@H](CN1CCCC1)c1cccc(NC(=O)[C@H](N)CC(=O)O)c1` [(R)-3-Amino-N-[3-((S)-1-{[2-(3,4-dichloro-phenyl)-acetyl]-methyl-amino}-2-pyrrolidin-1-yl-ethyl)-phenyl]-succinamic acid], the Ki was 573 nM.
